Consider three molecules from ChEMBL document CHEMBL1143344, “Novel DNA-directed alkylating agents: design, synthesis and potent antitumor effect of phenyl N-mustard-9-anilinoacridine conjugates via a carbamate or carbonate linker” (Bioorg Med Chem, 2009).

Activity calls are given as the source filed them. No cut-off for these calls is given here.

The subject of data set [1] is CCRF-CEM. The data set can be described thus: Cytotoxicity against human CCRF-CEM cells after 72 hrs by XTT assay. The class given is functional, cell-based. The note with it: read-out: IC50. (In general: Formazan colour is commonly taken as a measure of viable cells.)
The subject of data set [2] is CCRF-CEM. The data set can be described thus: Cytotoxicity against vinblastine-resistant human CCRF-CEM cells after 72 hrs by XTT assay. The class given is functional, cell-based.
For data set [3], the system named is CCRF-CEM. Nature of the data set: Ratio of IC50 for taxol-resistant human CCRF-CEM cells to IC50 for human CCRF-CEM cells. The class given is functional.
For data set [4], the system named is CCRF-CEM. Nature of the data set: Ratio of IC50 for vinblastine-resistant human CCRF-CEM cells to IC50 for human CCRF-CEM cells. It is filed as functional.
Data set [5] has as its system MX1. Nature of the data set: Cytotoxicity against human MX1 cells after 72 hrs by SRB assay. The conditions noted are these: MX1, 72 h. It is filed as functional, cell-based. On the technique in general: In SRB staining, fixed cells bind dye roughly in proportion to their protein.
The subject of data set [6] is HCT-116. Nature of the data set: Cytotoxicity against human HCT116 cells after 72 hrs by SRB assay. It is filed as functional, cell-based. The note with it: HCT-116, 72 h.
Data set [7] in a line: Cytotoxicity against human H1299 cells after 72 hrs by WST1 assay. The class given is functional, cell-based. The note with it: NCI-H1299, 72 h.
The subject of the next data set is PC-3. Nature of the data set: Cytotoxicity against human PC3 cells after 72 hrs by WST1 assay. It is filed as functional, cell-based. The note with it: PC-3, 72 h.
Data set [8] in a line: Cytotoxicity against human CL1-0 cells after 72 hrs by WST1 assay. It is filed as functional, cell-based. The conditions noted are these: CL1-0, 72 h.
Data set [9] in a line: Cytotoxicity against human CL1-5 cells after 72 hrs by WST1 assay. The class given is functional, cell-based. The note with it: CL1-5, 72 h.
A further data set has as its system MCF7. Nature of the data set: Cytotoxicity against human MCF7 cells after 72 hrs by WST1 assay. The class given is functional, cell-based. The note with it: MCF7, 72 h.
In data set [10] the test system is MX1. Nature of the data set: Antitumor activity against human MX1 cells xenografted in athymic nude mouse assessed as total tumor remission at 50 mg/kg, iv administered q2d for 5 days measured after 12 days. The class given is functional, organism-based. Also on record: dose 50 mg/kg. For orientation: Xenograft models place foreign cells or tissue in a host animal.

Data set [11] has as its system MX1. The data set can be described thus: Antitumor activity against human MX1 cells xenografted in athymic nude mouse assessed as total tumor remission at 50 mg/kg, iv administered q2d for 5 days measured after 20 days. It is filed as functional, organism-based. The arrangement: dose 50 mg/kg.
The subject of data set [12] is MX1. The data set can be described thus: Antitumor activity against human MX1 cells xenografted in athymic nude mouse assessed as no tumor relapse at 50 mg/kg, iv administered q2d for 5 days measured after 129 days. It is filed as functional, organism-based. Also on record: dose 50 mg/kg.
Data set [13] concerns HCT-116. Nature of the data set: Antitumor activity against human HCT116 cells xenografted in athymic nude mouse assessed as tumor growth inhibition at 50 mg/kg, iv administered q2d for 7 days. The class given is functional. The arrangement: scale not given: the % may be the effect or the level left.
For the next data set, the system named is Mus musculus. Nature of the data set: Toxicity in athymic nude mouse xenografted with human HCT116 cells assessed as body weight loss at 50 mg/kg, iv administered q2d for 7 days. The arrangement: dose 50 mg/kg, route intravenous. The class given is organism-based, HCT-116. The note with it: in vivo, 168 h.
Data set [14] concerns H1299. Nature of the data set: Induction of DNA interstrand cross-linking in 20 Gy irradiated human H1299 cells after 1 hr by comet assay. The class given is cell-based.
Data set [15] has as its system CCRF-CEM. Nature of the data set: Cytotoxicity against taxol-resistant human CCRF-CEM cells after 72 hrs by XTT assay. The class given is functional, cell-based.
For data set [16], the system named is H1299. Nature of the data set: Induction of DNA interstrand cross-linking in 20 Gy irradiated human H1299 cells at 10 uM after 1 hr by comet assay. The class given is cell-based.
Data set [17] relates to H1299. The data set can be described thus: Induction of DNA interstrand cross-linking in 20 Gy irradiated human H1299 cells at 200 uM after 1 hr by comet assay. The class given is cell-based.
Data set [18] deals with H1299. The data set can be described thus: Induction of DNA interstrand cross-linking in 20 Gy irradiated human H1299 cells assessed as decrease in DNA migration after 1 hr by comet assay. The class given is cell-based.
Data set [19] can be described thus: Stability in rat plasma assessed as half life at 5 ug/ml after 10 mins by HPLC. The class given is ADME, cell-free.
Data set [20] concerns MX1. Nature of the data set: Antitumor activity against human MX1 cells xenografted in athymic nude mouse assessed as total tumor remission at 50 mg/kg, iv administered q2d for 9 days measured after 29 days. It is filed as functional, organism-based. Also on record: dose 50 mg/kg.
In data set [21] the test system is MX1. Nature of the data set: Antitumor activity against human MX1 cells xenografted in athymic nude mouse assessed as total tumor remission at 50 mg/kg, iv administered q2d for 9 days measured after 31 days. The class given is functional, organism-based. Also on record: dose 50 mg/kg.
Data set [22] concerns MX1. The data set can be described thus: Antitumor activity against human MX1 cells xenografted in athymic nude mouse assessed as total tumor remission at 50 mg/kg, iv administered q2d for 9 days measured after 33 days. It is filed as functional, organism-based. Also on record: dose 50 mg/kg.
Data set [23] deals with MX1. Nature of the data set: Antitumor activity against human MX1 cells xenografted in athymic nude mouse assessed as total tumor remission at 50 mg/kg, iv administered q2d for 9 days measured after 35 days. The class given is functional, organism-based. Also on record: dose 50 mg/kg.
In data set [24] the test system is MX1. The data set can be described thus: Antitumor activity against human MX1 cells xenografted in athymic nude mouse assessed as total tumor remission at 10 mg/kg, iv administered q2d for 3 days measured after 16 days. The arrangement: dose 10 mg/kg. It is filed as functional, organism-based.
In data set [25] the test system is MX1. The data set can be described thus: Antitumor activity against human MX1 cells xenografted in athymic nude mouse assessed as total tumor remission at 10 mg/kg, iv administered q2d for 3 days measured after 18 days. The class given is functional, organism-based. The arrangement: dose 10 mg/kg.
Data set [26] concerns MX1. The data set can be described thus: Antitumor activity against human MX1 cells xenografted in athymic nude mouse assessed as total tumor remission at 10 mg/kg, iv administered q2d for 3 days measured after 20 days. It is filed as functional, organism-based. Also on record: dose 10 mg/kg.

Broadly, the IC50 is the point on the concentration scale where inhibition reaches its midpoint. By half-life is commonly meant the time in which the quantity being followed falls by half. Take `O=C(Nc1cc(CO)cc(Nc2c3ccccc3nc3ccccc23)c1)Oc1ccc(N(CCCl)CCCl)cc1`: the IC50 with CCRF-CEM [1] is 75 nM; in the data set on CCRF-CEM [2] it was 184 nM; in the data set on MX1 [5], 99 nM; with HCT-116 [6], 568 nM; in data set [7], 284 nM; in the data set on PC-3 it was 1610 nM. The concentration for half-maximal inhibition (IC50) in data set [8] was 2700 nM; in data set [9] it was 5060 nM; in the data set with MCF7, 4800 nM; in the data set on CCRF-CEM [15] it was 140 nM. Besides, the “Ratio IC50” value in the data set on CCRF-CEM [3] is on record as 1.9; in the data set on CCRF-CEM [4], 2.5. Further, the outcome with MX1 [10], in the data set on MX1 [11] and in the data set with MX1 [12] was Active. Further, the Activity in the data set with HCT-116 [13] was 98%; in the data set on Mus musculus it was 8%; in the data set on H1299 [14], “Dose-dependent effect”; in the data set with H1299 [16], 74.2%; in the data set on H1299 [17], 39.7%; in the data set on H1299 [18], “Dose-dependent effect”. Moreover, in data set [19], the half-life at 5 ug/ml was 6.41 h.
For the molecule `Cc1ccc(Nc2c3ccccc3nc3c(C)cccc23)cc1NC(=O)Oc1ccc(N(CCCl)CCCl)cc1`, the IC50 with CCRF-CEM [1] was 132 nM; in the data set with CCRF-CEM [2], 157 nM; in the data set with MX1 [5], 286 nM; with HCT-116 [6], 607 nM; in the data set on CCRF-CEM [15], 169 nM. For the same molecule, the results for the “Ratio IC50” value with CCRF-CEM [3] and in the data set with CCRF-CEM [4] were 1.3 and 1.2, respectively. Moreover, the outcome in the data set on MX1 [20], with MX1 [21], with MX1 [22] and in the data set on MX1 [23] was Active. In addition, the Activity with HCT-116 [13] amounted to 89%; in the data set on Mus musculus, 8%.
Turning to `CCOC(=O)Nc1cc(COC(=O)Oc2ccc(N(CCCl)CCCl)cc2)cc(Nc2c3ccccc3nc3ccccc23)c1`, the IC50 in the data set with CCRF-CEM [1] is 315 nM; with CCRF-CEM [2], 482 nM; in the data set on MX1 [5], 89 nM; in the data set on HCT-116 [6], 639 nM; in data set [7] it was 527 nM; in the data set with PC-3, 23300 nM. Further, the concentration for half-maximal inhibition (IC50) in data set [8] turned out to be 410 nM; in data set [9] it was 4560 nM; in the data set on MCF7, 19800 nM; in the data set on CCRF-CEM [15], 509 nM. Further, the entries for the “Ratio IC50” value with CCRF-CEM [3] and in the data set on CCRF-CEM [4] were 1.6 and 1.5, respectively. The result with MX1 [24], in the data set on MX1 [25] and with MX1 [26] was Active.
